Values of other authors, collected in EP1147779A1, “A method for rendering ursodeoxycholic acid in soluble form pharmaceutical compositions” (BIOPROGRESS S.p.A., priority 2000, dated 2001).

Assays:
[1] = ursodeoxycholic acid as such; background statement

Row | Compound | toxicity (general statement, allowed by FAO/WHO as food additive) | passage of the intestinal mucosa / presence in plasma and urine (oral administration to humans) | solubility [1]
1 | β-cyclodextrin | no toxicity | does not overcome the barrier of the intestinal mucosa and is not found either in plasma or in urine | 
2 | C[C@H](CCC(=O)O)[C@H]1CC[C@H]2[C@@H]3[C@@H](O)C[C@@H]4C[C@H](O)CC[C@]4(C)[C@H]3CC[C@]12C [Ursodeoxycholic acid] |  |  | practically insoluble
